Data from ChEMBL document CHEMBL1140570, “Synthesis and antimicrobial evaluation of guanylsulfonamides” (2007).
Converted amounts (≈) assume the structure as drawn. The source made the active and inactive calls. No cut-off for these calls is given here.

Columns and labels:
Pseudomonas aeruginosa = test: Antibacterial activity against Pseudomonas aeruginosa ATCC 27853 by serial dilution method; assay type: functional
Enterococcus faecalis = test: Antibacterial activity against Streptococcus faecalis ATCC 29212 by serial dilution method; assay type: functional
Candida albicans [1] = test: Antifungal activity against Candida albicans NCIM C27 by serial dilution method; assay type: functional
Aspergillus flavus [2] = test: Antifungal activity against Aspergillus flavus NCIM 539 by serial dilution method; assay type: functional
Bacillus subtilis [3] = test: Antibacterial activity against Bacillus subtilis ATCC 6033 by serial dilution method; assay type: functional
Staphylococcus aureus = test: Antibacterial activity against Staphylococcus aureus ATCC 25923 by serial dilution method; assay type: functional
Escherichia coli [4] = test: Antibacterial activity against Escherichia coli ATCC 25922 by serial dilution method; assay type: functional
Klebsiella pneumoniae [5] = test: Antibacterial activity against Klebsiella pneumoniae ATCC 13883 by serial dilution method; assay type: functional
Aspergillus niger [6] = test: Antifungal activity against Aspergillus niger NCIM 590 by serial dilution method; assay type: functional
Klebsiella pneumoniae [7] = test: Antibacterial activity against Klebsiella pneumoniae ATCC 13883 at 64 ug/mL by serial dilution method; assay type: functional, organism-based
Bacillus subtilis [8] = test: Antibacterial activity against Bacillus subtilis ATCC 6033 at 64 ug/mL by serial dilution method; assay type: functional, organism-based
Aspergillus niger [9] = test: Antifungal activity against Aspergillus niger NCIM 590 at 64 ug/mL by serial dilution method; assay type: functional, organism-based
Escherichia coli [10] = test: Antibacterial activity against Escherichia coli ATCC 25922 at 64 ug/mL by serial dilution method; assay type: functional, organism-based
Candida albicans [11] = test: Antifungal activity against Candida albicans NCIM C27 at 64 ug/mL by serial dilution method; assay type: functional, organism-based
Aspergillus flavus [12] = test: Antifungal activity against Aspergillus flavus NCIM 539 at 64 ug/mL by serial dilution method; assay type: functional, organism-based

Structure (SMILES)	MIC (Pseudomonas aeruginosa) [µg/mL]	MIC (Enterococcus faecalis) [µg/mL]	MIC (Candida albicans [1]) [µg/mL]	MIC (Aspergillus flavus [2]) [µg/mL]	MIC (Bacillus subtilis [3]) [µg/mL]	MIC (Staphylococcus aureus) [µg/mL]	MIC (Escherichia coli [4]) [µg/mL]	MIC (Klebsiella pneumoniae [5]) [µg/mL]	MIC (Aspergillus niger [6]) [µg/mL]	Activity (Klebsiella pneumoniae [7])	Activity (Bacillus subtilis [8])	Activity (Aspergillus niger [9])	Activity (Escherichia coli [10])	Activity (Candida albicans [11])	Activity (Aspergillus flavus [12])
COc1cc(S(=O)(=O)N2CCCCC2)ccc1-n1cnc2c(=O)[nH]c(N)nc21	64 (≈ 158 µM)	64 (≈ 158 µM)	32 (≈ 79.1 µM)	16 (≈ 39.6 µM)	16 (≈ 39.6 µM)	64 (≈ 158 µM)	32 (≈ 79.1 µM)	32 (≈ 79.1 µM)	16 (≈ 39.6 µM)						
Nc1nc2c(ncn2-c2ccc(S(=O)(=O)N3CCCCC3)cc2Cl)c(=O)[nH]1	8 (≈ 19.6 µM)	4 (≈ 9.78 µM)	64 (≈ 157 µM)	64 (≈ 157 µM)	32 (≈ 78.3 µM)	4 (≈ 9.78 µM)	16 (≈ 39.1 µM)	16 (≈ 39.1 µM)	64 (≈ 157 µM)						
Nc1nc2c(ncn2-c2ccc(S(=O)(=O)N3CCCCC3)cc2)c(=O)[nH]1	64 (≈ 171 µM)	64 (≈ 171 µM)				64 (≈ 171 µM)				inactive	inactive	inactive	inactive	inactive	inactive
Nc1nc2c(ncn2-c2ccc(S(=O)(=O)N3CCCCC3)cc2F)c(=O)[nH]1	64 (≈ 163 µM)	16 (≈ 40.8 µM)			32 (≈ 81.5 µM)	32 (≈ 81.5 µM)	64 (≈ 163 µM)	32 (≈ 81.5 µM)				inactive		inactive	inactive
CC1CCN(S(=O)(=O)c2ccc(-n3cnc4c(=O)[nH]c(N)nc43)c(F)c2)CC1	64 (≈ 157 µM)	32 (≈ 78.7 µM)	64 (≈ 157 µM)	64 (≈ 157 µM)	64 (≈ 157 µM)	32 (≈ 78.7 µM)	32 (≈ 78.7 µM)	32 (≈ 78.7 µM)	32 (≈ 78.7 µM)						
CC1CCN(S(=O)(=O)c2ccc(-n3cnc4c(=O)[nH]c(N)nc43)c(Cl)c2)CC1	16 (≈ 37.8 µM)	8 (≈ 18.9 µM)	64 (≈ 151 µM)	32 (≈ 75.7 µM)	32 (≈ 75.7 µM)	4 (≈ 9.46 µM)	16 (≈ 37.8 µM)	16 (≈ 37.8 µM)	32 (≈ 75.7 µM)						
CC1CCN(S(=O)(=O)c2ccc(-n3cnc4c(=O)[nH]c(N)nc43)cc2)CC1	64 (≈ 165 µM)	64 (≈ 165 µM)			64 (≈ 165 µM)	64 (≈ 165 µM)				inactive	inactive	inactive	inactive	inactive	inactive
COc1cc(S(=O)(=O)N2CCC(C)CC2)ccc1-n1cnc2c(=O)[nH]c(N)nc21	64 (≈ 153 µM)	32 (≈ 76.5 µM)	32 (≈ 76.5 µM)	16 (≈ 38.2 µM)	16 (≈ 38.2 µM)	32 (≈ 76.5 µM)	16 (≈ 38.2 µM)	32 (≈ 76.5 µM)	32 (≈ 76.5 µM)						
CCn1cc(C(=O)O)c(=O)c2cc(F)c(N3CCNCC3)cc21 [NORFLOXACIN]	8 (≈ 25.1 µM)	8 (≈ 25.1 µM)			32 (≈ 100 µM)	8 (≈ 25.1 µM)	16 (≈ 50.1 µM)	16 (≈ 50.1 µM)							
